Measured values reported in patent US9624224B2, “Inhibitors of Bruton's tyrosine kinase” (Pharmacyclics LLC, priority 2013, dated 2017).

Experiments:
Format in all cases: biochemical
BTK = target: T1, BTK (Homo sapiens, UniProt Q06187); experiment: Btk in vitro inhibitory activity (TR-FRET, mobility shift or radiometric filter binding kinase assay); conditions: determined using one of the methods outlined in Example 47a, 47b, and 47c
T1 construct: purified from insect cells as a full-length construct containing a N-terminal 6×-His tag; His6 (N); made in house; host or cells: insect cells (baculovirus, Sf21)
Experimental: (§1) Btk kinase activity is determined using a time-resolved fluorescence resonance energy transfer (TR-FRET) methodology. Measurements are performed in a reaction volume of 50 μL using 96-well assay plates. […] The reaction is quenched by the addition of 1.2 equivalents of EDTA (relative to divalent cation) in 25 μL of 1× Lance buffer (Perkin-Elmer). Streptavidin-APC (Perkin-Elmer) and Eu-labeled p-Tyr100 antibody (Perkin-Elmer) in 1× Lance buffer are added in a 25 μL volume to give final concentrations of 100 nM and 2.5 nM, respectively, and the mixture is allowed to incubate for one hour. The TR-FRET signal is measured on a multimode plate reader with an excitation wavelength (λEx) of 330 nm and detection wavelengths (λEm) of 615 and 665 nm. Activity is determined by the ratio of the fluorescence at 665 nm to that at 615 nm. For each compound, enzyme activity is measured at various concentrations of compound. Negative control reactions are performed in the absence of inhibitor in replicates of six, and two no-enzyme controls are used to determine baseline fluorescence levels. Inhibition constants, Ki(app), ware obtained using the program BatchKi (Kuzmic et al. (2000), Anal. Biochem. 286:45-50). IC50s are obtained according to the equation: IC50={Ki(app)/(1+[ATP]/Km^ATP)}+[E]total/2;
(§2) For all kinases, [ATP]=Km^ATP, [Btk]total=0.5 nM and [Lck]total=6 nM.
Kinase activity is measured in vitro using electrophoretic mobility shift assay. The kinase reactions are assembled in a total volume of 25 μL in 384 well plates. […] The reaction is incubated for one hour and is quenched by the addition of 45 μL of termination buffer (100 mM HEPES, pH7.5, 0.01% Triton X-100, 30 mM EDTA). The terminated reactions are analyzed using 12 channel LabChip® 3000 microfluidic detection instrument (Caliper Life Sciences). The enzymatic phosphorylation of the peptide results in a change in net charge, enabling electrophoretic separation of product from substrate peptide. As substrate and product peptides are separated, two peaks of fluorescence are observed. Change in the relative fluorescence intensity of the substrate and product peaks is the parameter measured, reflecting enzyme activity. In the presence of an inhibitor, the ratio between product and substrate is altered: the signal of the product decreases, while the signal of the substrate increases.
Activity in each sample is determined as the product to sum ratio (PSR): P/(S+P), where P is the peak height of the product peptide and S is the peak height of the substrate peptide. For each compound, enzyme activity is measured at various concentrations (12 concentrations of compound spaced by 3× dilution intervals). Negative control samples (0%-inhibition in the absence of inhibitor) and positive control samples (100%-inhibition, in the presence of 20 mM EDTA) are assembled in replicates of four and are used to calculate %-inhibition values for each inhibitor at each concentration. Percent inhibition (Pinh) is determined using following equation: Pinh=(PSR0%−PSRinh)/(PSR0%−PSR100%)*100,
where PSRmh is the product sum ratio in the presence of inhibitor, PSR0% is the average product sum ration in the absence of inhibitor and PSR100% is the average product sum ratio in 100%-inhibition control samples;
The IC50 values of inhibitors are determined by 4 parameter sigmoidal dose-response model fitting of the inhibition curves (Pinh versus inhibitor concentration) using XLfit 4 software.
Human Btk kinase (Genbank accession # NP_000052) was purified from insect cells as a full-length construct containing a N-terminal 6×-His tag. Btk kinase activity was determined using a radiometric filter binding assay. Measurements are performed in a low μL reaction volume 384-well assay plates. […]

EGFR = EGFR (Homo sapiens, UniProt P00533); experiment: EGFR kinase inhibition (in vitro kinase assay)
Lck = Lck (Homo sapiens, UniProt P06239); experiment: Lck kinase inhibition (in vitro kinase assay)
Experimental: as §1, §2

Chain of Lck (P06239 whole entry, species assumed): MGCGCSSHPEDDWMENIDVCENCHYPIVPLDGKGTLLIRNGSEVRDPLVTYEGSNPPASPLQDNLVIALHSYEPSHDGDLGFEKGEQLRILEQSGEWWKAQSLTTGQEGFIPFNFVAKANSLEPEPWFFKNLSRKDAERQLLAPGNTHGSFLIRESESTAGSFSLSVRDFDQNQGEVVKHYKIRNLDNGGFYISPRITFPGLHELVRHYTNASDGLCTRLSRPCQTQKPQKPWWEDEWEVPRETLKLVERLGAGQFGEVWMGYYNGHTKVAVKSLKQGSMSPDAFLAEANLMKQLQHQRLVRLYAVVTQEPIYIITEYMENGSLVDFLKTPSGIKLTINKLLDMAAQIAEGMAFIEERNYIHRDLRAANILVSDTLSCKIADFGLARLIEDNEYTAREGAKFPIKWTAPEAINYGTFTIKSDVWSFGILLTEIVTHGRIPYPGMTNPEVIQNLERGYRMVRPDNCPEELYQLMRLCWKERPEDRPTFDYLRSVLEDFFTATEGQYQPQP
T1 sequence (Q06187 whole entry): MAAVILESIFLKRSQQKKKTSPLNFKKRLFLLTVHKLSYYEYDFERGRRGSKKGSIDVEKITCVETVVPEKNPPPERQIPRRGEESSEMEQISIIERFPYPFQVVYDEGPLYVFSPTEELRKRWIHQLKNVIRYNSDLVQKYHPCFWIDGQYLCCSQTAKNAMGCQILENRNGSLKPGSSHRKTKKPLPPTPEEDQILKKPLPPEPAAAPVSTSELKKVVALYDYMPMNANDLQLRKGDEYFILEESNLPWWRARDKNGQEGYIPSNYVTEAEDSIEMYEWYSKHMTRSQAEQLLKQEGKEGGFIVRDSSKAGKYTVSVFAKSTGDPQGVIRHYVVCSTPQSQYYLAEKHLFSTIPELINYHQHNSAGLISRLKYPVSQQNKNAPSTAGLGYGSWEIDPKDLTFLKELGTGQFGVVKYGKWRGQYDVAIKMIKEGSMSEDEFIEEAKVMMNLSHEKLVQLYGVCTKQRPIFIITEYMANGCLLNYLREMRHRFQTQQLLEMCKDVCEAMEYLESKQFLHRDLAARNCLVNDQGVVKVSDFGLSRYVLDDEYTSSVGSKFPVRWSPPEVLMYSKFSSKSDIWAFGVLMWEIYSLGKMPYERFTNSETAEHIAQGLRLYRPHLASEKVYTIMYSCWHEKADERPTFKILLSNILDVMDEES
Chain of EGFR (P00533 25-1210, species assumed): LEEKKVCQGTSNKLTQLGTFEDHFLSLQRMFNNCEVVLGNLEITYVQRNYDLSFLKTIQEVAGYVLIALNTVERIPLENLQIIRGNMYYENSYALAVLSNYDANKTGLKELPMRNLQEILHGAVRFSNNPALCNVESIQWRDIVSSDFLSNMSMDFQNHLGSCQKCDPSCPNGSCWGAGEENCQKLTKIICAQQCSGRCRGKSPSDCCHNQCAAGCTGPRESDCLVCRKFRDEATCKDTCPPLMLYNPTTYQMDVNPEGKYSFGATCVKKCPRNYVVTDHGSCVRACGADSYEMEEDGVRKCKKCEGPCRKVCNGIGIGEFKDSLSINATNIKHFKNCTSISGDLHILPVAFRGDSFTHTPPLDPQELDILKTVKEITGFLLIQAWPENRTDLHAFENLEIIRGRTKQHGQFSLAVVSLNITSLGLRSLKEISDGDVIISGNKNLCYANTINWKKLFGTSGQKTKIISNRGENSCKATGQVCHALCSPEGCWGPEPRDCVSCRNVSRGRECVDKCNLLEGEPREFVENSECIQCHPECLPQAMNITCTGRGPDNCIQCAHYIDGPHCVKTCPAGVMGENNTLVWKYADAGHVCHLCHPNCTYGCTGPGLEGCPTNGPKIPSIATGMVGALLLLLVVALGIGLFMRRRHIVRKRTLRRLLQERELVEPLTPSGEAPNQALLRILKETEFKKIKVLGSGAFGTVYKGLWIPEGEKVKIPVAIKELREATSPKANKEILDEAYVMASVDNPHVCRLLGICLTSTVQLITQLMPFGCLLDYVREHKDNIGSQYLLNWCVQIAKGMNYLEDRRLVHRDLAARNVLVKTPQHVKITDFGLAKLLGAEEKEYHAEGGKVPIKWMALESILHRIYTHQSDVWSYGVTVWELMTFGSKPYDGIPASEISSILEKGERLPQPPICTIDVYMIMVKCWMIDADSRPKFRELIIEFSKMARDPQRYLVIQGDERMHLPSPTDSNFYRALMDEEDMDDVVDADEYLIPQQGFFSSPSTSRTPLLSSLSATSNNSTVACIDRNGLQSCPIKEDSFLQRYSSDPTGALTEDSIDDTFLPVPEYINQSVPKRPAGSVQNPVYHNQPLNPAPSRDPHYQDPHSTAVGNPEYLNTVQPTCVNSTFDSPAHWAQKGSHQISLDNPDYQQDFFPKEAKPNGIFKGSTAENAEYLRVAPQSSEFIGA

| Compound | IC50 (BTK) | IC50 (EGFR) | IC50 (Lck) |
| --- | --- | --- | --- |
| Cc1ccnc(NC(=O)c2ccc(-c3nn([C@@H]4CCN(C(=O)/C=C/CN(C)C5CC5)C4)c4ncnc(N)c34)cc2)c1 [Example 1, (R,E)-4-(4-amino-1-(1-(4-(cyclopropyl(methyl)amino)but-2-enoyl)pyrrolidin-3-yl)-1H-pyrazolo[3,4-d]pyrimidin-3-yl)-N-(4-methylpyridin-2-yl)benzamide] | < 0.001 µM | 1 to 10 µM | 0.1 to 1 µM |
| CN(C/C=C/C(=O)N1CC[C@@H](n2nc(-c3ccc(C(=O)Nc4cc(C(F)(F)F)ccn4)cc3)c3c(N)ncnc32)C1)C1CC1 [Example 2, (R,E)-4-(4-Amino-1-(1-(4-(cyclopropyl(methyl)amino)but-2-enoyl)pyrrolidin-3-yl)-1H-pyrazolo[3,4-d]pyrimidin-3-yl)-N-(4-(trifluoromethyl)pyridin-2-yl)benzamide] | < 0.001 µM | 0.1 to 1 µM | 0.1 to 1 µM |
| CCc1ccnc(NC(=O)c2ccc(-c3nn([C@@H]4CCN(C(=O)/C=C/CN(C)C5CC5)C4)c4ncnc(N)c34)cc2)c1 [Example 4, (R,E)-4-(4-amino-1-(1-(4-(cyclopropyl(methyl)amino)but-2-enoyl)pyrrolidin-3-yl)-1H-pyrazolo[3,4-d]pyrimidin-3-yl)-N-(4-ethylpyridin-2-yl)benzamide] | < 0.001 µM | 1 to 10 µM | 0.1 to 1 µM |
| CN(C/C=C/C(=O)N1CCC[C@@H](n2nc(-c3ccc(C(=O)Nc4ccccn4)cc3)c3c(N)ncnc32)C1)C1CC1 [Example 34, (R,E)-4-(4-amino-1-(1-(4-(cyclopropyl(methyl)amino)but-2-enoyl)piperidin-3-yl)-1H-pyrazolo[3,4-d]pyrimidin-3-yl)-N-(pyridin-2-yl)benzamide] | < 0.1 µM | – | – |
| Cc1ccnc(NC(=O)c2ccc(-c3nn([C@@H]4CCCN(C(=O)/C=C/CN(C)C5CC5)C4)c4ncnc(N)c34)cc2)c1 [Example 35, (R,E)-4-(4-amino-1-(1-(4-(cyclopropyl(methyl)amino)but-2-enoyl)piperidin-3-yl)-1H-pyrazolo[3,4-d]pyrimidin-3-yl)-N-(4-methylpyridin-2-yl)benzamide] | < 0.001 µM | – | – |
| CN(C/C=C/C(=O)N1CCC[C@@H](n2nc(-c3ccc(C(=O)Nc4cc(C(F)(F)F)ccn4)cc3)c3c(N)ncnc32)C1)C1CC1 [Example 36, (R,E)-4-(4-amino-1-(1-(4-(cyclopropyl(methyl)amino)but-2-enoyl)piperidin-3-yl)-1H-pyrazolo[3,4-d]pyrimidin-3-yl)-N-(4-(trifluoromethyl)pyridin-2-yl)benzamide] | < 0.001 µM | – | – |
| CN(C/C=C/C(=O)N1CCC[C@@H](n2nc(-c3ccc(C(=O)Nc4cc(C#N)ccn4)cc3)c3c(N)ncnc32)C1)C1CC1 [Example 38, (R,E)-4-(4-amino-1-(1-(4-(cyclopropyl(methyl)amino)but-2-enoyl)piperidin-3-yl)-1H-pyrazolo[3,4-d]pyrimidin-3-yl)-N-(4-cyanopyridin-2-yl)benzamide] | < 0.001 µM | – | – |
| CC(C)c1ccnc(NC(=O)c2ccc(-c3nn([C@@H]4CCCN(C(=O)/C=C/CN(C)C5CC5)C4)c4ncnc(N)c34)cc2)c1 [Example 39, (R,E)-4-(4-amino-1-(1-(4-(cyclopropyl(methyl)amino)but-2-enoyl)piperidin-3-yl)-1H-pyrazolo[3,4-d]pyrimidin-3-yl)-N-(4-isopropylpyridin-2-yl)benzamide] | < 0.1 µM | – | – |
| CN(C)C/C=C/C(=O)N1CCC[C@@H](n2nc(-c3ccc(C(=O)Nc4ccccn4)cc3)c3c(N)ncnc32)C1 [Example 40, (R,E)-4-(4-amino-1-(1-(4-(dimethylamino)but-2-enoyl)piperidin-3-yl)-1H-pyrazolo[3,4-d]pyrimidin-3-yl)-N-(pyridin-2-yl)benzamide] | < 0.001 µM | – | – |
| CN(C)C/C=C/C(=O)N1CCC[C@@H](n2nc(-c3ccc(C(=O)Nc4cc(C(F)(F)F)ccn4)cc3)c3c(N)ncnc32)C1 [Example 42, (R,E)-4-(4-amino-1-(1-(4-(dimethylamino)but-2-enoyl)piperidin-3-yl)-1H-pyrazolo[3,4-d]pyrimidin-3-yl)-N-(4-(trifluoromethyl)pyridin-2-yl)benzamide] | < 0.001 µM | – | – |
| CN(C/C=C/C(=O)N1CC[C@@H](n2nc(-c3ccc(C(=O)Nc4ccccn4)cc3)c3c(N)ncnc32)C1)C1CC1 [Example 46, (R,E)-4-(4-amino-1-(1-(4-(cyclopropyl(methyl)amino)but-2-enoyl)pyrrolidin-3-yl)-1H-pyrazolo[3,4-d]pyrimidin-3-yl)-N-(pyridin-2-yl)benzamide] | – | – | 0.1 to 1 µM |

Continued, values first:

| IC50 (BTK) | IC50 (EGFR) | IC50 (Lck) | Compound |
| --- | --- | --- | --- |
| < 0.001 µM | 0.1 to 1 µM | 0.1 to 1 µM | CCCc1ccnc(NC(=O)c2ccc(-c3nn([C@@H]4CCN(C(=O)/C=C/CN(C)C5CC5)C4)c4ncnc(N)c34)cc2)c1 [Example 3, (R,E)-4-(4-amino-1-(1-(4-(cyclopropyl(methyl)amino)but-2-enoyl)pyrrolidin-3-yl)-1H-pyrazolo[3,4-d]pyrimidin-3-yl)-N-(4-propylpyridin-2-yl)benzamide] |
| < 0.001 µM | – | – | CCCc1ccnc(NC(=O)c2ccc(-c3nn([C@@H]4CCN(C(=O)/C=C/CN(C)C)C4)c4ncnc(N)c34)cc2)c1 [Example 33, (R,E)-4-(4-amino-1-(1-(4-(dimethylamino)but-2-enoyl)pyrrolidin-3-yl)-1H-pyrazolo[3,4-d]pyrimidin-3-yl)-N-(4-propylpyridin-2-yl)benzamide] |
| < 0.001 µM | – | – | CCCc1ccnc(NC(=O)c2ccc(-c3nn([C@@H]4CCCN(C(=O)/C=C/CN(C)C5CC5)C4)c4ncnc(N)c34)cc2)c1 [Example 37, (R,E)-4-(4-amino-1-(1-(4-(cyclopropyl(methyl)amino)but-2-enoyl)piperidin-3-yl)-1H-pyrazolo[3,4-d]pyrimidin-3-yl)-N-(4-propylpyridin-2-yl)benzamide] |
| < 0.001 µM | – | – | Cc1ccnc(NC(=O)c2ccc(-c3nn([C@@H]4CCCN(C(=O)/C=C/CN(C)C)C4)c4ncnc(N)c34)cc2)c1 [Example 41, (R,E)-4-(4-amino-1-(1-(4-(dimethylamino)but-2-enoyl)piperidin-3-yl)-1H-pyrazolo[3,4-d]pyrimidin-3-yl)-N-(4-methylpyridin-2-yl)benzamide] |
| < 0.001 µM | – | – | CCCc1ccnc(NC(=O)c2ccc(-c3nn([C@@H]4CCCN(C(=O)/C=C/CN(C)C)C4)c4ncnc(N)c34)cc2)c1 [Example 43, (R,E)-4-(4-amino-1-(1-(4-(dimethylamino)but-2-enoyl)piperidin-3-yl)-1H-pyrazolo[3,4-d]pyrimidin-3-yl)-N-(4-propylpyridin-2-yl)benzamide] |
| < 0.001 µM | – | – | CC(C)c1ccnc(NC(=O)c2ccc(-c3nn([C@@H]4CCCN(C(=O)/C=C/CN(C)C)C4)c4ncnc(N)c34)cc2)c1 [Example 44, (R,E)-4-(4-amino-1-(1-(4-(dimethylamino)but-2-enoyl)piperidin-3-yl)-1H-pyrazolo[3,4-d]pyrimidin-3-yl)-N-(4-isopropylpyridin-2-yl)benzamide] |
| < 0.001 µM | – | – | CN(C)C/C=C/C(=O)N1CCC[C@@H](n2nc(-c3ccc(C(=O)Nc4cc(C#N)ccn4)cc3)c3c(N)ncnc32)C1 [Example 45, (R,E)-4-(4-amino-1-(1-(4-(dimethylamino)but-2-enoyl)piperidin-3-yl)-1H-pyrazolo[3,4-d]pyrimidin-3-yl)-N-(4-cyanopyridin-2-yl)benzamide] |
